Results as given in ChEMBL document CHEMBL5728233, “PSMA imaging agents” (2021).
pKi: −log10 of the molar value.

Molecular target: Glutamate carboxypeptidase 2 (Homo sapiens, UniProt Q04609)
Assay: Enzymatic Assay for In Vitro Evaluation of PSMA Inhibitors: The inhibitory activity of all compounds was determined using a fluorescent assay of human PSMA activity. The enzyme used in the assay was purchased from R&D Systems and stored at −80° C. The PSMA activity was assayed in a two-step process. In the first step, aliquots of enzyme (0.2 μg/mL) were incubated for 1 h at 37° C. in 50 mM HEPES, 0.1 M NaCl, pH 7.5, in the presence of 20 μM NAAG and the given inhibitor, in a volume of 250 μL, to allow for the accumulation of glutamate produced in the PSMA reaction. In the second step, the amount of accumulated glutamate was measured using the OPA reaction, and the fluorescence was read with a SpectraMax fluorescent plate reader using excitation at 330 nm and emission at 450 nm. The final Ki values for each inhibitor were calculated from the respective IC50 values using the Cheng and Prusoff equation.

Chain of Glutamate carboxypeptidase 2 (Q04609 whole entry): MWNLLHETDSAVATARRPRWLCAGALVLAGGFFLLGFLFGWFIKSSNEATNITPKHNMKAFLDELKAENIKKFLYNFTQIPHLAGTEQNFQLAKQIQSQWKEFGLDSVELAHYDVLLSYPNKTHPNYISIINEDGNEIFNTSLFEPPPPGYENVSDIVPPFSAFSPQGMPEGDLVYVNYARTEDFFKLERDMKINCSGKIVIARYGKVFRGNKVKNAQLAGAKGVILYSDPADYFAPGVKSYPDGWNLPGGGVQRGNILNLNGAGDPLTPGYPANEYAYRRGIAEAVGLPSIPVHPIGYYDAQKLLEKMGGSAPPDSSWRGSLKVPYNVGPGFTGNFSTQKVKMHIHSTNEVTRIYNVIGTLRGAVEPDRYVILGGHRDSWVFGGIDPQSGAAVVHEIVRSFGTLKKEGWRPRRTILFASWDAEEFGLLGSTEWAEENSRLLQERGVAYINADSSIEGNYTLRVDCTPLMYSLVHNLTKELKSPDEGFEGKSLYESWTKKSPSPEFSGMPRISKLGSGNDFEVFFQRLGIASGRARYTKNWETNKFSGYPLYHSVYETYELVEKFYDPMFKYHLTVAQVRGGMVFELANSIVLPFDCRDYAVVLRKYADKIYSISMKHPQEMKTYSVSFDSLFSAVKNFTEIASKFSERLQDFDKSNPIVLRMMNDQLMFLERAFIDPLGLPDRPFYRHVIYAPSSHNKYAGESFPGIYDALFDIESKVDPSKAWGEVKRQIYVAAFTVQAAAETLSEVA

pKi: 6.20
Structure (SMILES): CN(C(=O)N[C@@H](CCC(=O)O)C(=O)O)[C@@H](CCCCNC(=O)CCCCCn1cc(CCCF)nn1)C(=O)O
